Assay results reported in patent publication US5871779A, “Treatment of arthropathies with vanadate compounds or analogues thereof” (Mount Sinai Hospital Corporation, priority 1996, dated 1999).
pIC50: −log10 of the molar value. Where “and” joins values, the source holds several entries; their conditions need not be identical. Equal values may be shown once.

Assays:
[1] = test system: P388 (ADR); experiment: MTT cytotoxicity assay, P388 (ADR); type: cell-based, murine; conditions: P388 (ADR), 72 hours; read-out: IC50 Value
Protocol: (§1) The relative cytotoxicity of various compounds on tumor cell lines was investigated as follows. Cytotoxicity was measured by the MTT microculture tetrazolium colorimetric assay for all cell lines. The relative cytotoxicity of Na3 VO4 and VOSO4 was investigated using the following tumor cell lines: P388(WT) murine leukemia, P388 (ADR) murine leukemia, Lewis murine lung, MCF7 (WT) human breast, […] human lung, K562 human erythroleukemia, A431 human epidermal, LS180 human colon and SK-OV-3 human ovarian. The relative cytotoxicity of doxorubicin, Na3 VO4 and VOSO4 was investigated using the following tumor cell lines: P388(WT) murine leukemia, P388 (ADR) murine leukemia, MCF7(WT) human breast and MCF7 (ADR) human breast. The relative cytotoxicity of BMOV, BEOV and naglivan was investigated using the following tumor cell lines: P388(WT) murine leukemia, P388 (ADR) murine leukemia, Lewis murine lung, H460 human lung, K562 human erythroleukemia, and SK-OV-3 human ovarian.
(§2) The cells were plated (number of cells/well was different from cell line to cell depending on the dividing rate) in a 96-well microculture plate 24 hours prior to the delivery of the vanadium compounds. Serial concentrations of solutions of the test compounds (0.05-100 μM) were delivered to the corresponding wells. A blank column (without cells) and a control column (with cells without vanadium) were left. The cells were incubated for 72 hours continuously. An MTT solution was added to each well after this incubation period and the cells were incubated for 4 more hours for the completion of the dyeing process. The medium was removed find DMSO was added to each well. The absorbance of each well was read with a Titertek Multiskan (310C) spectrophotometer at 570 nm. The percentage of the absorbance of each vanadium concentration relative to the control calculated and the value of the 50% growth inhibition concentration (IC50) was obtained from the % control versus concentration plot. Each assay was repeated three times and the reported IC50 values were the mean of these three runs.

[2] = test system: Lewis lung; experiment: MTT cytotoxicity assay, Lewis lung; type: cell-based, murine; conditions: 72 hours
Protocol: as §1, §2

[3] = test system: SK-OV-3; experiment: MTT cytotoxicity assay, SK-OV-3; type: cell-based, human; conditions: SK-OV-3, 72 hours
Protocol: as §1, §2

[4] = test system: K562; experiment: MTT cytotoxicity assay, K562; type: cell-based, human; conditions: K562, 72 hours
Protocol: as §1
as §2, with “Serial concentrations of solutions of the test compounds (0.05-100 μM) were delivered to the corresponding wells.” left out

[5] = test system: collagenase; experiment: collagenase production by chondrocytes (ELISA); type: cell-based, bovine; conditions: summary statement
Protocol: The effect of orthovanadate and N-acetylcysteine on fos, jun and collagenase expression were examined. Bovine articular chondrocytes were isolated and plated as previously described (Kandel R. A. et al. Biochim. Biophys. Acta. 1053, 130-134, 1990). In order to determine the effect of orthovanadate on IL 1 and PMA (phorbol ester) induced responses, chondrocytes were incubated with orthovanadate (100 μM) for 2 hours before stimulation with IL 1 (10 ng/ml) or PMA ([…]). Collagenase production was determined by incubating chondrocytes for 24 hours with IL 1 or PMA and the cell conditioned medium was assayed for collagenase activity using an ELISA procedure as described previously (Kandel et al. supra). PLA2 activity was measured by incorporating ^3 H-arachidonic acid (^3 H-AA) into the cells and then incubating the cells with medium containing 1 mg/ml BSA, either alone or in the presence of IL 1 or PMA, for 10 min. as previously described (Conquer, J. A. […], Biochim. Biophys. Acta. 1134, 1-6). The amount of ^3 H-AA liberated into the supernatant was determined. To measure PGE2 production, chondrocytes were incubated for 6 hours in Ham's F12 medium, either alone or with IL 1 or PMA. The supernatant was analyzed by RIA using an antibody specific for PGE2 (Dr. S. A. Jones, Mount Sinai Hospital, Toronto, Canada). In order to examine the expression of c-fos and c-jun, chondrocytes were incubated for 1 hour in the presence of IL-1, PMA or AA (3 μM). Chondrocytes were washed in PBS and the total RNA extracted as previously described (Cruz. et al, 1991, Biochem. J. 277, 327-330). RNA samples were run on formaldehyde agarose gels and transferred to nylon membrane for northern analysis using cDNA probes for c-fos and c-jun.

[6] = test system: proliferating chondrocytes; experiment: viability / proliferation of proliferating chondrocytes (low cell density); type: cell-based; conditions: summary statement
Protocol: In order to compare the effect of orthovanadate on non-proliferating and proliferating chondrocytes, chondrocytes were plated at both high cell density (2×10^6 to 4×10^6 cells/per well on a six well plate) (nonproliferating) and at a lower cell density (5×10^5 to 1×10^6 cells/per well on a six well plate) (proliferating) and then maintained for 48 hours. The cells were then incubated in media (HAMS F12) containing 0-50 μM Orthovanadate for an additional 48 hours. The cells were harvested and the number of viable cells determined.

[7] = body weight of mice, BEOV and N-acetylcysteine (Example 21); type: in vivo; parameters: Body weight / Body weight, Average: unit not given here; conditions: for Body weight: individual mice; for death of animal: mouse 5
Protocol: (§3) Forty mice were subcutaneously injected with 100 μl of MDAY-2D tumor cell suspension (8×10^6 /100 μl)on day 1. On day 6, the mice were randomly divided into […] groups and injected following drugs twice a day. The […] groups were as follows: Group 1: 100 μl of PBS; Group 2: 100 μl of 2% NAC(ip) and 0.1 mg BEOV in 100 μl BS; Group 3: 100 μl of 2% NAC(ip) and 0.25 mg BEOV in 100 μl PBS; and Group 4: 100 μl of 2% NAC(ip) and 0.5 mg BEOV in 100 μl PBS. On injection day 9, the mice were sacrificed and the tumors dissected.

[8] = test system: P388 (WT); experiment: MTT cytotoxicity assay, P388 (WT); type: cell-based, murine; conditions: P388 (WT), 72 hours; read-out: IC50 Value
Protocol: as §1, §2

[9] = test system: H460; experiment: MTT cytotoxicity assay, H460; type: cell-based, human; conditions: H460, 72 hours
Protocol: as §1, §2

[10] = test system: MDAY-2D tumor; experiment: BEOV and N-acetylcysteine on tumor growth (Example 21); type: in vivo, mice; parameters: unit not given here; conditions: for Tumour weight: individual mice
Protocol: The effectiveness of BEOV in reducing tumor growth was investigated and the effective concentration required for inhibiting tumor growth was determined as follows.
as §3

[11] = test system: carcinogenesis; conditions: G. Shklar et al.; cited from earlier work
[12] = test system: MDAY-2D tumor; experiment: ammonium bisvanadate and N-acetylcysteine on tumor growth (Example 22); type: in vivo, mice; parameters: Tumour weight: unit not given here; conditions: for Tumour weight: individual mice
Protocol: Forty mice were subcutaneously injected with MDAY-2D tumor cells (8×10^5 /100 μl) on day 1. On day 6, the mice were randomly divided into six groups and injected with the following drugs twice a day: Group 1: 100 μl of PBS; Group 2: 100 μl of 2% NAC(ip) and 0.1 mg ammonium bisvanadate in 100 μl PBS; Group 3: 100 μl of 2% NAC(ip) and 0.25 mg ammonium bisvanadate in 100 μl PBS; Group 4;100 μl of 2% NAC(ip) and 0.5 mg ammonium bisvanadate in 100 μl PBS; Group 5: 100 μl of 2% NAC (ip) and 0.75 mg ammonium bisvanadate in 100 μl PBS and; Group 6: 100 μl of 2% NAC (ip) and 1.0 mg ammonium bisvanadate.
On injection day 11 the mice were sacrificed and the tumors dissected. […] The effective concentrations of the vanadate complexes are from 0.25mg/100 μl and 0.5 mg/100 μl.

[13] = test system: MDAY-D2 tumor; experiment: MDAY-D2 tumor growth in vivo, orthovanadate, vanadyl sulphate, vanadyl hydroperoxide (Example 6B); parameters: species or system mice
From the text: In order to examine the ability of vanadyl compounds to reduce tumor formation, growth and metastases, a specific animal model which allows investigation of all of these processes in the same animal was chosen. This model involves the injection of a metastatic haematopoietic cell line, MDAY-D2, into mice subcutaneously. These cells form a tumor at the site of injection and its size can be easily determined. In addition, these cells metastasize to the liver and metastases can be detected histologically after day 17 to 19. This model provides a very sensitive and reproducible approach to investigate the effect of vanadyl compounds on tumor growth and metastases.
In a separate experiment using the same animal model, the effect of orthovanadate, vanadyl sulphate and vanadyl hydroperoxide administration on tumor growth in vivo was examined. On Day 1, 20 mice were injected with 2×10^5 MDAY-D2 cell subcutaneously. The mice were divided into four groups of five mice. At day 5, the animals were injected subcutaneously with 50 μl of water alone or containing 10 mg/ml of orthovanadate, 10 mg/ml of vanadyl sulphate, or 10 mg/ml of vanadyl hydroperoxide. This treatment was continued daily for 16 days. At day 21, the mice were sacrificed and the tumors dissected and weighed.

[14] = test system: MDAY-D2 cells; experiment: viability of MDAY-D2 cells; type: cell-based, mouse; conditions: 0-50 μM, 48 hours, three forms compared
Protocol: Fos and jun activity are also required for cellular proliferation in many tumor cell lines. Accordingly, the effect of orthovanadate on adherent cells and cell suspensions were examined. MDAY-D2 (a mouse lymphoid cell line grown in suspension) and HTB14 cells (an adherent human primary astrocytoma cell line) were incubated in media containing 0-50 μM orthovanadate for 48 hours. The cells were harvested and the number of viable cells determined.
Three different forms of vanadyl compounds were examined for their effect on viability of cancer cell lines. MDAY-D2 cells were incubated in media containing 0-50 μM orthovanadate, vanadyl sulphate, or vanadyl hydroperoxide for 48 hours. The cells were harvested and the number of viable cells determined. […] Although there were slight differences in sensitivity, the overall cell death was similar.

## CCc1occc(=O)c1[O][V](=[O])[O]c1c(CC)occc1=O [BEOV, bis(ethylmaltolato) oxovanadium]
[1]
  pIC50: 4.40
[2]
  pIC50: 4.01
[3]
  pIC50: 5.59
[4]
  pIC50: 3.43
[5]
  production of metalloproteases, such as collagenase: inhibit
[6]
  proliferation of cells, such as chondrocytes: inhibit
[7]; 0.1 mg BEOV + 2% NAC
  Body weight, Average: 16.5
  Body weight: 17.8 and 15.5 and 15.9 and 16.8
  death of animal: died
[7]; 0.25 mg BEOV + 2% NAC
  Body weight, Average: 16.02
  Body weight: 15.9 and 15.7 and 16.9 and 15.4 and 16.2
[7]; 0.5 mg BEOV + 2% NAC
  Body weight, Average: 15.25
  Body weight: 13.7 and 13.9 and 16 and 17.4
  death of animal: died
[8]
  pIC50: 4.08
[9]
  pIC50: 5.36
[10]; 0.1 mg BEOV + 2% NAC
  Tumour weight, Average: 0.82
[10]; 0.1 mg BEOV twice a day + 2% NAC ip
  Tumour weight: 0.9 and 0.6 and 0.8 and 1.0
[10]; 0.25 mg BEOV + 2% NAC
  Tumour weight, Average: 0.08
[10]; 0.25 mg BEOV twice a day + 2% NAC ip
  Tumour weight: 0.28 and 0.0 and 0.12
[10]; 0.5 mg BEOV + 2% NAC
  Tumour weight, Average: 0.03
[10]; 0.5 mg BEOV twice a day + 2% NAC ip
  Tumour weight: 0.1 and 0.0

## N[C@@H](CCC(=O)N[C@@H](CS)C(=O)NCC(=O)O)C(=O)O [glutathione]
[11]
  anticancer activity: anticancer activity

## CC1=C(/C=C/C(C)=C/C=C/C(C)=C/C=C/C=C(C)/C=C/C=C(C)/C=C/C2=C(C)CCCC2(C)C)C(C)(C)CCC1 [β-carotene]
[11]
  anticancer activity: anticancer activity

## ammonium bis vanadate [ABOV]
[5]
  production of metalloproteases, such as collagenase: inhibit
[12]; 0.1 mg ABOV twice a day + 2% NAC ip
  Tumour weight: 0.62 and 0.19 and 0.74 and 0.53 and 0.32 and 0.50
[12]; 0.25 mg ABOV twice a day + 2% NAC ip
  Tumour weight: 0.25 and 0.33 and 0.54 and 0.20 and 0.0 and 0.18
[12]; 0.5 mg ABOV twice a day + 2% NAC ip
  Tumour weight: 0.21 and 0.50 and 0.07 and 0.34 and 0.0
[12]; 0.75 mg ABOV twice a day + 2% NAC ip
  death of animals: died
[12]; 1.0 mg ABOV twice a day + 2% NAC ip
  death of animals: died
[12]; with NAC
  inhibition of tumor growth: inhibited the tumor growth
[6]
  proliferation of cells, such as chondrocytes: inhibit

## n-tocopherol
[11]
  anticancer activity: anticancer activity

## vanadyl hydroperoxide
[13]; groups of five, 10 mg/ml, 50 μl daily s.c.
  animal deaths: all five died
[13]; mouse, in vivo
  efficacy in reducing tumor growth: too toxic to evaluate its efficacy
[14]
  killing of MDAY-D2 cells: equally effective

## vitamin E
[11]
  anticancer activity: anticancer activity
